# Source: article PMC12217544 (Scientific Reports, 2025)
# Assays:
# Vero E6 cells = conditions: MTT assay, ref [76]; cited from earlier work
# SARS-CoV-2 = conditions: SARS-CoV-2, Vero E6; ref [76]; cited from earlier work
# A549 cells = conditions: MTT, ref [75]; cited from earlier work
# [1] = test system: A/Puerto Rico/8/1934 H1N1; conditions: A/Puerto Rico/8/1934 H1N1, quantitative real-time PCR; ref [75]; cited from earlier work
# in vitro = conditions: African green monkey, CC50, Vero E6 cells, crystal violet, 3 days
structure (smiles),measurement,setting,value
Cc1ccc(C(C)C)c(O)c1 [Thymol],CC50,Vero E6 cells,617 µM
same,viral inhibition percentage (plaque reduction),SARS-CoV-2,96%
same,half-maximal cytotoxic concentration,A549 cells,49.4 µg/mL
same,concentration that effectively reduced the viral titer,[1],25 µg/mL
same,CC50,in vitro,63.3 µg/mL
